# Reference: patent US20180147296A1, “CARBON MATERIAL DELIVERY SYSTEMS AND METHODS” (The Research Foundation for The State University of New York, priority 2015, published 2018)
# Columns and labels:
# [1] = PrestoBlue assay, MCF-7-CMV/U251 co-culture; format: cell-based; conditions: human, read-out: viability compared to untreated controls
# Experimental: (§1) MCF-7, CG-4 and CMV/U251 were seeded separately on 12 mm round glass coverslips (Fisherbrand, Fisher Scientific, PA) in 100 mm plates at a density of 2.2×10^6 cells and allowed to grow overnight. For the two separate co-culture condition experiments, one coverslip from each cell line was placed in 6 well plates, for a total of two coverslips per well. These cells were then incubated with Luc alone (80 μM), 80 μM Luc loaded O-GNR-PEG-DSPE or O-GNR-PEG-DSPE for 24 h. After the incubation period, the media was removed and the cells were washed twice with 1×PBS. Each coverslip was then transferred to its own well in 6 well plates containing 3 mL of media and 300 μL of PrestoBlue® reagent. After incubating for 4 h, the fluorescence intensity was recorded using the procedure described above.
# MCF-7 = experiment: PrestoBlue assay, separate cultures; format: cell-based; conditions: 80 μM Luc free or loaded; 24 hours
# Experimental: (§2) Luc alone (80 μM), 80 μM Luc loaded O-GNR-PEG-DSPE and O-GNR-PEG-DSPE (same weight as used for Luc loading) were incubated with CMV/U251, A1-5/CMV/U251, MCF-7 and CG-4 cells (5×10^3 cells per well in 96 well plates) for 24 hours. Following the incubation period the media was removed and the cells were washed twice with 1×PBS. 100 μL of fresh media was added to each well, as well as 10 μL of PrestoBlue® to each well, and incubated for 4 hours. Fluorescence was measured by Cytofluor fluorescence multiwell plate reader (Infinite M200, Tecan Group Ltd, NC, USA) with excitation at 530 nm, and emission at 580 nm.
# (§3) The cell viability in terms of % of unexposed cells is expressed as the percentage of (Ftest−Fblank)/(Fcontrol−Fblank), where Ftest is the fluorescence of the cells exposed to nanoribbon-drug sample, Fcontrol is the fluorescence of the untreated sample and Fblank is the fluorescence of the wells without any cells. The PrestoBlue® reading for all lysed cells was also taken for comparison.
# [2] = PrestoBlue assay, separate cultures; format: cell-based; conditions: human, separate culture, 80 μM Luc free or loaded, read-out: viability compared to untreated controls
# Experimental: as §2, §3
# CG-4 = experiment: PrestoBlue assay, separate cultures; format: cell-based, rat; conditions: 80 μM Luc free or loaded; 24 hours
# Experimental: as §2, §3
# [3] = PrestoBlue assay, CG-4-CMV/U251 co-culture; format: cell-based; conditions: read-out: viability compared to untreated controls
# Experimental: as §1
# A1-5/CMV/U251 = experiment: Annexin V/PI staining, flow cytometry; format: cell-based; conditions: 4 hours; for % AV+ / % PI + AV+ / % PI+ / % PI−AV−: A1-5/CMV/U251, free or on GONR
# Experimental: (§4) Luc alone and Luc-loaded O-GNR-PEG-DSPEs at different concentrations (5-80 μM) were incubated with CMV/U251, A1-5/CMV/U251 and CG-4 (5×10^5 cells/3 mL in 6-well plates) for 4 hours. Unexposed cells were used as control. Unloaded O-GNR-PEG-DSPEs in amounts equivalent to the loaded nanoparticles were also exposed to all the cell types as delivery agent control. The viability of the cells was analyzed by flow cytometry after Annexin V/PI staining using FACS Calibur Cell Sorter (BD Biosciences, San Jose, Calif.).
# (§5) Annexin V (AV) is a 35 KDa phospholipid binding protein with an affinity for phosphotidyl serine. Early apoptotic cells show exposed phosphotidyl serine on their cell surface while it is still intact. PI on the other hand can only enter dead cells or early necrotic cells with compromised membranes. Thus, in flow cytometry AV+/PI+ represents dead cells, AV+/PI− represents cells in early apoptosis, AV−/PI+ represents dead or necrotic cells with compromised membranes, and AV−/PI− represents healthy living cells. […] However, 37% of cells were still living after 4 hours of exposure to O-GNR-PEG-DSPE loaded with 80 μM Luc.
# CMV/U251 = experiment: Annexin V/PI staining, flow cytometry; format: cell-based; conditions: 4 hours; for % AV+ / % PI + AV+ / % PI+ / % PI−AV−: CMV/U251, free or on GONR
# Experimental: as §4, §5
# HeLa cells [4] = experiment: Live-cell confocal microscopy of NBD-ceramide; format: cell-based; conditions: 40 μg/mL loaded O-GNRs or equal NBD-ceramide in ethanol; one hour
# Experimental: In order to visualize the uptake of ceramide-loaded nanoparticles into cells, we loaded O-GNRs with C6 ceramide conjugated to 4-Chloro-7-nitrobenzofurazan (NBD-ceramide). HeLa cells were seeded in glass-inset confocal dishes at a density of 7.5×10^4 cells/mL with 2 mL per plate and allowed to adhere overnight. The following day, cells were placed in a LiveCell™ stage top incubation platform (Pathology Devices Inc., Westminster, Md., USA) and NBD-ceramide-loaded O-GNRs were added to these plates at a concentration of 40 μg/mL. As a control, cells were also incubated with an equivalent amount of NBD-ceramide in ethanol in a separate experiment. The cells were then imaged using a Leica TCS SP8 Laser Scanning Confocal Microscope System (Buffalo Grove, Ill., USA) over a period of one hour at two minute intervals.
# HeLa cells [5] = experiment: PrestoBlue viability assay, C6 ceramide; format: cell-based; conditions: 8 μg/mL of C6; 24 hrs
# Experimental: HeLa cells were seeded in flat-bottomed 96 well plates at a density of 5000 cells/well and were allowed to adhere overnight. Ceramide-loaded nanoparticles (O-GNRs or GNPs) were added to each well at various concentrations ranging from 10-100 μg/mL of nanoparticles. In order to ensure that any observed decrease in viability compared to untreated cells could not be attributed to the loading process, the loading process was repeated with only nanoparticles and incubated them with HeLa cells at the highest concentration used (100 μg/mL). After 24 hours, the media was aspirated and each well was rinsed twice with PBS. […] After 2 hours, the plates were removed and the fluorescence intensity of each well was measured using a Molecular Devices SpectraMax M2e (Sunnyvale, Calif., USA) with an excitation wavelength of 560 nm and an emission wavelength of 590 nm. […] The cell viability is expressed as a percent of the […] with the formula: […]
# where Itest is the fluorescence intensity of cells exposed to ceramide-loaded nanoparticles, Icontrol is the fluorescence intensity of […], and Iblank is the fluorescence intensity from empty wells.
# In a separate experiment, the efficacy of ceramide-loaded O-GNRs were compared to C6 ceramide without nanoparticles placed directly in the media. […] Viability was assessed with PrestoBlue using identical methods as described above.
# HeLa cells [6] = experiment: Confocal microscopy of C12 NBD ceramide; format: cell-based; conditions: 2 hours
# Experimental: C12 NBD ceramide was loaded onto O-GNRs using the same procedure as C24 and C16 ceramide. HeLa cells were seeded in glass-inset confocal dishes at a density of 7.5×10^4 cells/mL with 2 mL per plate and allowed to adhere overnight. Cells were treated with either 5 μM fluorescent C12 NBD ceramide or an equivalent amount of fluorescent C12 NBD ceramide loaded on O-GNRs for 2 hours and imaged using a Leica TCS SP8 Laser Scanning Confocal Microscope System (Buffalo Grove, Ill., USA). Cells were pretreated with inhibitors of O-GNR uptake Dynasore and Gefitinib, endosome disruptor Desipramine, or no treatment for 30 minutes prior to the addition of ceramide or ceramide-loaded O-GNRs.
smiles,measurement,setting,value
CCN(CC)CCNc1ccc(C)c2sc3ccccc3c(=O)c12 [Lucanthone],"viability at 24 h, 80 μM","[1]; CMV/U251 cells on coverslips, co-cultured with MCF-7 cells, CMV/U251 in co-culture with MCF-7, 80 μM Luc free or loaded, or carrier alone",~28%
same,"viability at 24 h, 80 μM","[1]; MCF-7 cells on coverslips, co-cultured with CMV/U251 cells, MCF-7 in co-culture with CMV/U251, 80 μM Luc free or loaded, or carrier alone",~36%
same,toxicity (PrestoBlue),MCF-7,toxic
same,"viability at 24 h, 80 μM",[2]; A1-5/CMV/U251 cells,~30%
same,"viability at 24 h, 80 μM",[2]; CMV/U251 cells,~40%
same,toxicity (PrestoBlue),CG-4,toxic
same,"viability at 24 h, 80 μM","[3]; human, CMV/U251 cells on coverslips, co-cultured with CG-4 cells, CMV/U251 in co-culture with CG-4, 80 μM Luc free or loaded",~15%
same,"viability at 24 h, 80 μM","[3]; rat, CG-4 cells on coverslips, co-cultured with CMV/U251 cells, CG-4 in co-culture with CMV/U251, 80 μM Luc free or loaded",~30%
same,cell death,A1-5/CMV/U251; 40 μM free Luc,100%
same,% AV+,A1-5/CMV/U251; 5 μM lucanthone,0%
same,% PI + AV+,A1-5/CMV/U251; 5 μM lucanthone,0%
same,% PI+,A1-5/CMV/U251; 5 μM lucanthone,76%
same,% PI−AV−,A1-5/CMV/U251; 5 μM lucanthone,24%
same,% AV+,A1-5/CMV/U251; 10 μM lucanthone,0%
same,% PI + AV+,A1-5/CMV/U251; 10 μM lucanthone,0%
same,% PI+,A1-5/CMV/U251; 10 μM lucanthone,92%
same,% PI−AV−,A1-5/CMV/U251; 10 μM lucanthone,8%
same,% AV+,A1-5/CMV/U251; 20 μM lucanthone,0%
same,% PI + AV+,A1-5/CMV/U251; 20 μM lucanthone,0%
same,% PI+,A1-5/CMV/U251; 20 μM lucanthone,98%
same,% PI−AV−,A1-5/CMV/U251; 20 μM lucanthone,2%
same,% AV+,A1-5/CMV/U251; 40 μM lucanthone,0%
same,% PI + AV+,A1-5/CMV/U251; 40 μM lucanthone,0%
same,% PI+,A1-5/CMV/U251; 40 μM lucanthone,100%
same,% PI−AV−,A1-5/CMV/U251; 40 μM lucanthone,0%
same,% AV+,A1-5/CMV/U251; 80 μM lucanthone,0%
same,% PI + AV+,A1-5/CMV/U251; 80 μM lucanthone,0%
same,% PI+,A1-5/CMV/U251; 80 μM lucanthone,100%
same,% PI−AV−,A1-5/CMV/U251; 80 μM lucanthone,0%
same,cell death,CMV/U251; 80 μM free Luc,100%
same,% AV+,CMV/U251; 5 μM lucanthone,0%
same,% PI + AV+,CMV/U251; 5 μM lucanthone,17%
same,% PI+,CMV/U251; 5 μM lucanthone,78%
same,% PI−AV−,CMV/U251; 5 μM lucanthone,20%
same,% AV+,CMV/U251; 10 μM lucanthone,0%
same,% PI + AV+,CMV/U251; 10 μM lucanthone,0%
same,% PI+,CMV/U251; 10 μM lucanthone,95%
same,% PI−AV−,CMV/U251; 10 μM lucanthone,5%
same,% AV+,CMV/U251; 20 μM lucanthone,0%
same,% PI + AV+,CMV/U251; 20 μM lucanthone,0%
same,% PI+,CMV/U251; 20 μM lucanthone,97%
same,% PI−AV−,CMV/U251; 20 μM lucanthone,3%
same,% AV+,CMV/U251; 40 μM lucanthone,0%
same,% PI + AV+,CMV/U251; 40 μM lucanthone,0%
same,% PI+,CMV/U251; 40 μM lucanthone,97%
same,% PI−AV−,CMV/U251; 40 μM lucanthone,3%
same,% AV+,CMV/U251; 80 μM lucanthone,5%
same,% PI + AV+,CMV/U251; 80 μM lucanthone,0%
same,% PI+,CMV/U251; 80 μM lucanthone,95%
same,% PI−AV−,CMV/U251; 80 μM lucanthone,0%
same,% PI−AV−,"CMV/U251; 80 μM lucanthone, listed as Luc",no healthy living cells remaining
same,nature of cell death (dead cells PI+/AV−),"CMV/U251; CMV/U251 and A1-5/CMV/U251, 5-80 μM",necrotic
"CCCCCCCCCCCCC/C=C/C(O)C(CO)NC(=O)CCCCCNc1ccc([N+](=O)[O-])c2nonc12 [NBD ceramide, C6 N-[6-[(7-nitro-2-1,3-benzoxadiazol-4-yl)amino]hexanoyl]-D-erythro-sphingosine]",uptake of NBD ceramide into cells (fluorescence),HeLa cells [4],rapid uptake
"CCCCCCCCCCCCC/C=C/[C@@H](O)[C@H](CO)NC(=O)CCCCC [C6 ceramide, C6-Ceramide]",HeLa cell viability greater than lysed cells,HeLa cells [5],55.8%
CCCCCCCCCCCCC/C=C/[C@@H](O)[C@H](CO)NC(=O)CCCCCCCCCCCNc1ccc([N+](=O)[O-])c2nonc12 [C12 NBD ceramide],fluorescence compared with cells not treated with inhibitor,HeLa cells [6]; pretreated with Dynasore 30 minutes,no difference
same,fluorescence compared with cells not treated with inhibitor,HeLa cells [6]; pretreated with Gefitinib 30 minutes,no difference
same,endosome localization compared with cells not treated with desipramine,HeLa cells [6]; pretreated with desipramine 30 minutes,significantly less endosome localization
